Laboratory results: article PMC6599006, “Rational design using sequence information only produces a peptide that binds to the intrinsically disordered region of p53” (Scientific Reports, 2019)
Peptide text beside a SMILES is read from it.

How the values were obtained:
[1] = tested on: FL-p53 binding to nspDNA (random sequence); assay: Fluorescence anisotropy titration of FL-p53 against nspDNA in the presence of peptide; type: biochemical, human
From the text: (§1) We prepared FL-p53, TetCT mutant, and CoreTet mutant as described previously. For FL-p53, the thermostable and cysteine-modified mutant of human p53 (C124A, C135V, C141V, W146Y, C182S, V203A, R209P, C229Y, H233Y, Y234F, N235K, Y236F, T253V, N268D, C275A, C277A, K292C) was used[11]. The TetCT mutant corresponds to residues 293−393 of human p53 with an additional N-terminal cysteine. The CoreTet mutant corresponds to residues 1–363 of FL-p53[12]. Expression and purification of the three mutants was conducted as previously described[11],[12]. Briefly, all mutants with a GST tag were expressed in Escherichia coli and were collected from a GST column after cleavage of the GST tag and further purified by using a heparin column. The DNA binding ability of all mutants was confirmed by titration experiments as described elsewhere[10]–[12]. […]
(§2) The fluorescence anisotropy of fluorescent CT peptide or DNA was measured at 25 °C using a fluorescence spectrometer (FP-6500, JASCO Co., Tokyo, Japan) with an automatic titrator and home-build autorotating polarizer. […] For p53 mutants, the concentration was calculated for the tetramer.

[2] = tested on: CoreTet mutant of p53 binding to spDNA (p21); assay: Fluorescence anisotropy titration of CoreTet mutant against spDNA in the presence of DP6; type: biochemical, human; settings: 600 μM DP6
Method: (§3) The solution used here included 100 mM KCl to mimic physiological conditions.
as §1, §2

[3] = tested on: TetCT mutant of p53 binding to nspDNA (random sequence); assay: Fluorescence anisotropy titration of TetCT mutant against nspDNA in the presence of DP6; type: biochemical, human; settings: at more than 150 μM DP6; 100 mM KCl
Method: as §3, §1, §2

[4] = tested on: FL-p53 binding to spDNA (p21); assay: Fluorescence anisotropy titration of FL-p53 against spDNA in the presence of peptide; type: biochemical, human; settings: saturated at 300 μM DP6
From the text: as §1, §2

[5] = target: T1, CT peptide (residues 367–393 of human p53) (Homo sapiens, UniProt P04637); assay: Fluorescence anisotropy titration of peptides against FAM-labeled CT peptide of p53; type: binding; settings: absence of salt; versus Wmot2, Cul7, WS100B peptides
T1 construct: CT peptide (residues 367–393 of human p53) labeled with FAM at the N-terminus; purchased Toray Research Center Inc., Tokyo, Japan; host or cells: chemical synthesis
Method: To test how well our method worked, we titrated the designed peptides against the CT peptide (residues 367–393) labeled with a fluorescent dye, FAM, using a fluorometer with fluorescence anisotropy[11]
The fluorescence anisotropy of fluorescent CT peptide or DNA was measured at 25 °C using a fluorescence spectrometer (FP-6500, JASCO Co., Tokyo, Japan) with an automatic titrator and home-build autorotating polarizer[11]. […] The titration curves were fitted by the following equations:1 robs=rA(cA−cAB)/cA+rABcAB/cA, 2 cAB=(cA+cB+KD)−(cA+cB+KD)^2−4cAcB/2, where robs, rA, rAB, KD, cA, and cB are the observed anisotropy, anisotropy of free molecule A, anisotropy of the complex between molecules A and B, dissociation constant, total concentration of molecule A and total concentration of molecule B, respectively. For p53 mutants, the concentration was calculated for the tetramer.

[6] = target: T2, FL-p53 labeled with Atto532 sliding along nspDNA (λDNA array) (Homo sapiens, UniProt P04637, C124A/C135V/C141V/C182S/C229Y/C275A/C277A/H233Y/K292C/N235K/N268D/R209P/T253V/V203A/W146Y/Y234F/Y236F); assay: Single-molecule fluorescence measurement of 1D sliding of FL-p53 along DNA (DNA garden); type: biochemical; settings: displacement analysis, time interval 165 ms; for Fraction of fast sliding mode of FL-p53: 100 mM KCl, 2 mM MgCl2, pH 7.9
T2 construct: we prepared three p53 constructs: full-length p53 (FL-p53); GST (cleaved yes); made in house; host or cells: Escherichia coli
Method: The 1D sliding of FL-p53 labeled with Atto532 along DNA was measured by a custom-built TIRF microscope, as described previously[11],[39]. The λDNA array tethered on the coverslip of the flow cell was constructed using microcontact printing as described previously[39]. FL-p53 was labeled with Atto532 as described elsewhere[11]. FL-p53 with Atto532 at 2–4 nM was introduced into the flow cell with the DNA array by a syringe pump and measured at a flow rate of 500 μL/min, corresponding to 90% extension of λDNA. […] The experiments were conducted immediately after the dilution of FL-p53 from the stock solution at more than 10 μM and finished within 50 min to prevent the dissociation of the tetramer[40]. The analysis was described previously[11]. For distribution analysis, the following fitting equation was used:3 P(δx)=∑i=12Ai/4πDiδtexp(−(δx+viδt)^2/4Diδt), where P(δx), δt, δx, Ai, vi, and Di are the occurrence of δx, time interval, displacement in the time interval, amplitude of the ith mode, drift velocity of the ith mode, and diffusion coefficient of the ith mode, respectively.

| Compound | effect on the affinity of FL-p53 for DNA ([1]; DP5, nspDNA and spDNA (Fig. S7, Table S2)) | effect on binding of the CoreTet mutant to spDNA [2] | anisotropy change for nspDNA on titration of TetCT mutant [3] | increase of the KD of FL-p53 for spDNA [4] [fold] | KD of DP6 with respect to the CT domain, times stronger than the KD of the natural peptides [5] | Fraction of slow sliding mode of FL-p53 ([6]; [DP6] 300) [%] | Fraction of fast sliding mode of FL-p53 ([6]; [DP6] 300) [%] | Fraction of slow sliding mode of FL-p53 ([6]; [DP6] 600) [%] | Fraction of fast sliding mode of FL-p53 ([6]; [DP6] 600) [%] | increase of the KD of FL-p53 for nspDNA ([1]; at 600 μM than at 0 μM DP6) [fold] |
| --- | --- | --- | --- | --- | --- | --- | --- | --- | --- | --- |
| NC(=O)C[C@H](NC(=O)[C@H](CC(N)=O)NC(=O)[C@H](CC(=O)O)NC(=O)[C@H](CCC(=O)O)NC(=O)[C@H](CCC(=O)O)NC(=O)[C@H](CCC(=O)O)NC(=O)[C@@H](N)CCC(=O)O)C(=O)N[C@@H](CC(=O)O)C(=O)N[C@@H](CC(=O)O)C(=O)N[C@@H](CC(=O)O)C(=O)N[C@@H](CCC(=O)O)C(=O)N[C@@H](CCC(=O)O)C(=O)N[C@@H](CCC(=O)O)C(=O)O [DP5] (H-EEEEDNNDDDEEE-OH) | did not affect the affinity of FL-p53 | – | – | – | – | – | – | – | – | – |
| NC(=O)C[C@H](NC(=O)[C@H](CC(N)=O)NC(=O)[C@H](CC(=O)O)NC(=O)[C@H](CCC(=O)O)NC(=O)[C@H](CCC(=O)O)NC(=O)[C@H](CCC(=O)O)NC(=O)[C@H](CCC(=O)O)NC(=O)[C@@H](N)CCC(=O)O)C(=O)N[C@@H](CC(=O)O)C(=O)N[C@@H](CC(=O)O)C(=O)N[C@@H](CC(=O)O)C(=O)N[C@@H](CCC(=O)O)C(=O)N[C@@H](CCC(=O)O)C(=O)N[C@@H](CCC(=O)O)C(=O)N[C@@H](Cc1c[nH]c2ccccc12)C(=O)N[C@@H](Cc1ccccc1)C(=O)O [DP6] | – | did not weaken the binding | no significant change in anisotropy | 3 | at least 12 times | 54 ± 1 | 46 ± 2 | 31 ± 2 | 69 ± 1 | 7 |
